Earlier results on one compound are cited in patent EP3842031A1, “NEW THERAPEUTIC INHALATION SYSTEM PROVIDING REDUCED DOSE OF FLUTICASONE PROPIONATE AND SALMETEROL XINAFOATE WITH IMPROVED EFFICACY AND SAFETY PROFILE” (PRZEDSIEBIORSTWO FARMACEUTYCZNE LEK-AM SP Z O. O., priority 2019, dated 2021).

The conditions of series [1]: in vivo.
For series [2] the following is noted: compared with beclomethasone dipropionate, control of chronic asthma.

With `CCC(=O)O[C@]1(C(=O)SCF)[C@H](C)C[C@H]2[C@@H]3C[C@H](F)C4=CC(=O)C=C[C@]4(C)[C@@]3(F)[C@@H](O)C[C@@]21C` [Fluticasone propionate], in series [1], the oral bioavailability result is “less than 1%”. In addition, the potency entry in series [2] is “twice the potency of the beclomethasone dipropionate”.
